The assay is filed under the species Homo sapiens. The assay can be described thus: Anticancer activity against human with metastatic pancreatic cancer assessed as median survival. Type of assay: functional.

Turning to `CCc1c2c(nc3ccc(OC(=O)N4CCC(N5CCCCC5)CC4)cc13)-c1cc3c(c(=O)n1C2)COC(=O)[C@]3(O)CC`, the Survival came out at 10.3 months.

(Values after ChEMBL document CHEMBL1146471, “Camptothecin and taxol: historic achievements in natural products research” (J Nat Prod, 2004).)
